PubChem BioAssay (NCI)
Where “and” joins values, the source holds several entries; their conditions need not be identical. Identical values can stand only once.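 Test compounds were applied to cells in 96-well plates for 48 hours at 5 doses. GI50 = concentration required for 50% inhibition of growth. TGI denotes the concentration required for complete inhibition of growth.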

Tests used:
Assay in all cases: inhibition of tumour cell growth, NCI panel, 48 h
[1] = system: A498 renal
[2] = system: A549 NSCLC
[3] = system: HS 578T breast
[4] = system: LOX IMVI melanoma
[5] = system: MDA-MB-435
[6] = system: NCI/ADR-RES ovarian
[7] = system: SF-539 CNS
[8] = system: SK-MEL-2 melanoma
[9] = system: SN12C renal
[10] = system: UACC-62 melanoma

Structure (SMILES)	GI50 [1]	TGI [1]	GI50 [2]	TGI [2]	GI50 [3]	TGI [3]	GI50 [4]	TGI [4]	GI50 [5]	TGI [5]	GI50 [6]	TGI [6]	GI50 [7]	TGI [7]	GI50 [8]	TGI [8]	GI50 [9]	TGI [9]	GI50 [10]	TGI [10]
O=C(/C=C/c1ccco1)Nc1ncc(Cc2cccc(C(F)(F)F)c2)s1	0.0267 µM	1.73 µM	0.113 µM	> 36.4 µM	0.0466 µM	3.89 µM	0.0572 µM	2.92 µM	20.7 nM	0.0533 µM	0.0422 µM	1.66 µM	76.2 nM	0.313 µM	0.0966 µM	5.28 µM	0.197 µM	> 50.5 µM	0.0545 µM	24.6 µM
O=C(CN1CCN(CCN2C(=O)c3cccc4cccc(c34)C2=O)CC1)Nc1ccc2ncsc2c1	22.3 µM	> 100 µM	3.58 µM	15.4 µM	43.3 µM	> 100 µM	4.93 µM	20.4 µM	5520 nM	20.4 µM	6.2 µM	53.8 µM	6430 nM	20.5 µM	6.49 µM	23.6 µM	5.5 µM	19.9 µM	6.61 µM	22.4 µM
CCSc1nc(NC(C)c2ccccc2)c2cnn(CO)c2n1 (stereo unspecified)	27 µM	> 100 µM	> 100 µM	> 100 µM	8.09 µM	99.4 µM	37 µM	> 100 µM	21100 nM	> 100 µM	80.8 µM	> 100 µM	94400 nM	> 100 µM	> 100 µM	> 100 µM	> 100 µM	> 100 µM	26.6 µM	> 100 µM
COc1ccc(C2=NN(C=O)C(c3ccc(OS(=O)(=O)c4ccc(C)cc4)c(OC)c3)C2)cc1 (stereo unspecified)	1.81 µM	> 100 µM	9.42 µM	> 100 µM	5.66 µM	88.3 µM	9.41 µM	> 100 µM	2400 nM	9.97 µM	4.5 µM	> 100 µM	8620 nM	> 100 µM	3.52 µM	38.6 µM	65.9 µM	> 100 µM	3.73 µM	> 100 µM
Nc1nc(=S)c2ncn(C3OC(CO)C(O)C3O)c2[nH]1 (stereo unspecified)	5.11 µM	> 87.6 µM	3.69 µM	> 33.6 µM	2.27 µM	> 86.1 µM	0.301 µM	11.8 µM	1020 nM	> 69.6 µM	0.4 µM	–	745 nM	> 79.2 µM	10.5 µM	> 100 µM	3.98 µM	> 100 µM	0.446 µM	5.67 µM
CC(=O)N(C)c1cc(NCc2ccccc2)ccc1OCc1ccccc1	–	30.8 µM	–	36.7 µM	–	91 µM	–	36.2 µM	–	32.2 µM	–	44.8 µM	–	32 µM	–	30.8 µM	–	33.1 µM	–	31.8 µM
O=C(Nc1ccc(Oc2ccc(NC(=O)Nc3ccccc3Cl)cc2)cc1)Nc1ccccc1Cl	22.2 µM	64.3 µM	2.69 µM	> 26.1 µM	17.8 µM	> 100 µM	10.8 µM	> 100 µM	> 100000 nM	> 100 µM	10.8 µM	> 63.8 µM	6000 nM	22.1 µM	8.17 µM	> 20.4 µM	7.55 µM	> 100 µM	7.42 µM	> 62 µM
O=C(/C=C\c1cc(Br)ccc1O)/C=C/c1cc(Br)ccc1O	1.65 µM	3.26 µM	2.61 µM	13.5 µM	1.25 µM	39.2 µM	0.208 µM	0.463 µM	355 nM	1.53 µM	0.321 µM	12.9 µM	1470 nM	3.35 µM	2.25 µM	6.15 µM	1.47 µM	4.63 µM	0.429 µM	1.8 µM
[N-]=[N+]=NCCCn1c2c(c3ccc([N+](=O)[O-])cc3c1=O)C(=O)c1cc(I)ccc1-2	6.52 µM	28.5 µM	8.06 µM	> 100 µM	28 µM	> 100 µM	3.75 µM	33 µM	34300 nM	> 100 µM	4.17 µM	46.6 µM	2230 nM	8.51 µM	71.2 µM	> 100 µM	3.89 µM	> 100 µM	3.33 µM	18.3 µM
C=C[C@H]1CN2CCc3c([nH]c4c([C@@H]5CCCN5C)c(O)ccc34)[C@@H]2C[C@@H]1C[C@H]1c2[nH]c3ccccc3c2CCN1C	–	3.11 µM and 3.44 µM	–	3.12 µM and 3.13 µM	–	3.04 µM and 3.39 µM	–	3.03 µM and 2.86 µM	1710 nM	2.99 µM and 2.95 µM and 3.15 µM	–	3.34 µM and 3.52 µM	197 nM	3.14 µM and 0.41 µM and 3.09 µM	–	3.37 µM	–	3.13 µM and 3.39 µM	–	3.28 µM
